# Measurements as given in patent US20240376094A2, “SELECTIVE BCL-XL PROTAC COMPOUNDS AND METHODS OF USE” (Les Laboratoires Servier, priority 2021, published 2024).
# Columns and labels:
# Type in all cases: cell-based
# HiBiT-tagged BCL-xL = target: T1, HiBiT-tagged BCL-xL (Homo sapiens, UniProt Q07817); assay: NCI-H1650 BCL-xL protein levels, Nano-Glo HiBiT Lytic Detection; conditions: NCI-H1650 expressing HiBiT-tagged BCL-xL, overnight incubation, read-out: Bcl-xl HIBIT NCIH1650 DC50
# T1 construct: expressed in transfected cells; host or cells: NCI-H1650 (ATCC No. CRL-5883), engineered HiBiT cell line
# Procedure, shortened: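 NCI-H1650 cells expressing HiBiT-tagged BCL-xL (5000/well) were treated overnight at 37° C with 10 concentrations, final 0.508 nM-10 μM, in triplicate. Remaining BCL-xL measured by Nano-Glo HiBiT lytic luminescence, normalized to untreated cells; 50% values by four-parameter logistic fit.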
# MOLT-4 cells = assay: MOLT-4 cell viability, CTG assay; conditions: Homo sapiens, MOLT-4, 48 h
# Procedure, shortened: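 Cells grown in RPMI 1640 with 10% FBS at 37° C, 5% CO2, then exposed to compounds for 48 h (11-point 5-fold dilution, triplicates). ATP measured by CellTiter-Glo luminescence; IC50 from four-parameter fit versus control, mean of ≥2 independent experiments.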
# [1] = tested on: EBC-1 lung cancer cell line; assay: EBC-1 cell proliferation, CellTiter-Glo assay; conditions: Homo sapiens, 120 h; Ebc-1 cell viability, CTG assay, 5 days of treatment; read-out: CTG 5 day Ebc1 GI50
# Procedure, shortened: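 EBC-1 cells seeded at 1000 per well overnight, then exposed to 10-point dilutions (0.508 nM–10 μM final) for 5 days at 37 °C, in triplicate. ATP luminescence by CellTiter-Glo, normalised to untreated wells; GI50 from four-parameter logistic fit, runs valid only with at least one doubling.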
# Bcl-xL = target: T2, Bcl-xL (Homo sapiens, UniProt Q07817); assay: HCT116 Bcl-xL degradation, capillary-based immunoassay (WES); conditions: HCT116, 24 h, 9-point serial dilution
# T2 construct: Measured levels of Bcl-xL protein of HCT116 cells treated with the tested compounds; host or cells: HCT116
# Procedure, shortened: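 HCT116 cells treated 24 h with compound at 10/100 nM and/or 9-point dilution (quadruplicates), then lysed. Bcl-xL measured by capillary WES immunoassay, normalized to cofilin and expressed as % of untreated cells. DC50 from four-parameter curve fit.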
# T2 sequence (Q07817 whole entry): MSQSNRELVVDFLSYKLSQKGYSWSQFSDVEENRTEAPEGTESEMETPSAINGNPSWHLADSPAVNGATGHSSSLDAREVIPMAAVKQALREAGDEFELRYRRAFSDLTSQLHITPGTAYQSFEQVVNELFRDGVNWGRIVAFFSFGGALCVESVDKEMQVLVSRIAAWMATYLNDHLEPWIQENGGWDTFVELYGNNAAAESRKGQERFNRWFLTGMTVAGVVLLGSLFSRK
# T1 sequence (Q07817 whole entry): as above
Structure (SMILES),DC50 (HiBiT-tagged BCL-xL) [nM],IC50 (MOLT-4 cells) [nM],GI50 [1] [nM],DC50 (Bcl-xL) [nM]
"Cc1ncsc1-c1ccc([C@H](C)NC(=O)[C@@H]2C[C@@H](O)CN2C(=O)[C@@H](NC(=O)COCCCCCCCCCCCN(C)CCOC23CC4(C)CC(C)(CC(Cn5ncc(-c6ccc(N7CCCc8c7nnc(Nc7nc9ccccc9s7)c8C)nc6C(=O)O)c5C)(C4)C2)C3)C(C)(C)C)cc1 [Example 110, 6-[3-(1,3-benzothiazol-2-ylamino)-4-methyl-6,7-dihydro-5H-pyrido[2,3-c]pyridazin-8-yl]-3-[1-[[3-[2-[11-[2-[[(1S)-1-[(2S,4R)-4-hydroxy-2-[[(1S)-1-[4-(4-methylthiazol-5-yl)phenyl]ethyl]carbamoyl]pyrrolidine-1-carbonyl]-2,2-dimethyl-propyl]amino]-2-oxo-ethoxy]undecyl-methyl-amino]ethoxy]-5,7-dimethyl-1-adamantyl]methyl]-5-methyl-pyrazol-4-yl]pyridine-2-carboxylic acid]",2,23.9,379,11.4
"Cc1ncsc1-c1ccc(CNC(=O)[C@@H]2C[C@@H](O)CN2C(=O)[C@@H](NC(=O)C2(F)CC2)C(C)(C)SCCCCCCCCCCCCN(C)CCOC23CC4(C)CC(C)(CC(Cn5ncc(-c6ccc(N7CCCc8c7nnc(Nc7nc9ccccc9s7)c8C)nc6C(=O)O)c5C)(C4)C2)C3)cc1 [Example 79, 6-[3-(1,3-benzothiazol-2-ylamino)-4-methyl-6,7-dihydro-5H-pyrido[2,3-c]pyridazin-8-yl]-3-[1-[[3-[2-[12-[(2R)-2-[(1-fluorocyclopropanecarbonyl)amino]-3-[(2S,4R)-4-hydroxy-2-[[4-(4-methylthiazol-5-yl)phenyl]methylcarbamoyl]pyrrolidin-1-yl]-1,1-dimethyl-3-oxo-propyl]sulfanyldodecyl-methyl-amino]ethoxy]-5,7-dimethyl-1-adamantyl]methyl]-5-methyl-pyrazol-4-yl]pyridine-2-carboxylic acid]",> 1670,6.06,66,0.399
"Cc1c(Nc2nc3ccccc3s2)nnc2c1CCCN2c1ccc(-c2cnn(CC34CC5(C)CC(C)(C3)CC(OCCN(C)CCCCCCCCCCCCCCCOc3ccc6c(c3)C(=O)N(C3CCC(=O)NC3=O)C6=O)(C5)C4)c2C)c(C(=O)O)n1 (stereo not drawn) [Example 119, 6-[3-(1,3-benzothiazol-2-ylamino)-4-methyl-6,7-dihydro-5H-pyrido[2,3-c]pyridazin-8-yl]-3-[1-[[3-[2-[15-[2-(2,6-dioxo-3-piperidyl)-1,3-dioxo-isoindolin-5-yl]oxypentadecyl-methyl-amino]ethoxy]-5,7-dimethyl-1-adamantyl]methyl]-5-methyl-pyrazol-4-yl]pyridine-2-carboxylic acid]",> 1670,4.78,69,0.681
"Cc1cc(N(CCCCN(C)C(=O)CCCCCCCCCCC(=O)N[C@H](C(=O)N2C[C@H](O)C[C@H]2C(=O)N[C@@H](C)c2ccc(-c3scnc3C)cc2)C(C)(C)C)c2ccc(-c3cnn(CC45CC6(C)CC(C)(C4)CC(OCCN(C)C)(C6)C5)c3C)c(C(=O)O)n2)nnc1Nc1nc2ccccc2s1 [Example 112, 6-[[6-(1,3-benzothiazol-2-ylamino)-5-methyl-pyridazin-3-yl]-[4-[[12-[[(1S)-1-[(2S,4R)-4-hydroxy-2-[[(1S)-1-[4-(4-methylthiazol-5-yl)phenyl]ethyl]carbamoyl]pyrrolidine-1-carbonyl]-2,2-dimethyl-propyl]amino]-12-oxo-dodecanoyl]-methyl-amino]butyl]amino]-3-[1-[[3-[2-(dimethylamino)ethoxy]-5,7-dimethyl-1-adamantyl]methyl]-5-methyl-pyrazol-4-yl]pyridine-2-carboxylic acid]",0.5,15.7,437,0.495
"Cc1ncsc1-c1ccc([C@H](C)NC(=O)[C@@H]2C[C@@H](O)CN2C(=O)[C@@H](NC(=O)CCOCCCCCCN(C)CCOC23CC4(C)CC(C)(CC(Cn5ncc(-c6ccc(N7CCCc8c7nnc(Nc7nc9ccccc9s7)c8C)nc6C(=O)O)c5C)(C4)C2)C3)C(C)(C)C)cc1 [Example 108, 6-[3-(1,3-benzothiazol-2-ylamino)-4-methyl-6,7-dihydro-5H-pyrido[2,3-c]pyridazin-8-yl]-3-[1-[[3-[2-[6-[3-[[(1S)-1-[(2S,4R)-4-hydroxy-2-[[(1S)-1-[4-(4-methylthiazol-5-yl)phenyl]ethyl]carbamoyl]pyrrolidine-1-carbonyl]-2,2-dimethyl-propyl]amino]-3-oxo-propoxy]hexyl-methyl-amino]ethoxy]-5,7-dimethyl-1-adamantyl]methyl]-5-methyl-pyrazol-4-yl]pyridine-2-carboxylic acid]",> 1670,9.7,81,> 316
"Cc1ncsc1-c1ccc(CNC(=O)[C@@H]2C[C@@H](O)CN2C(=O)[C@@H](NC(=O)C2(F)CC2)C(C)(C)SCCCCCCCCCCN(C)CCOC23CC4(C)CC(C)(CC(Cn5ncc(-c6ccc(N7CCCc8c7nnc(Nc7nc9ccccc9s7)c8C)nc6C(=O)O)c5C)(C4)C2)C3)cc1 [Example 94, 6-[3-(1,3-benzothiazol-2-ylamino)-4-methyl-6,7-dihydro-5H-pyrido[2,3-c]pyridazin-8-yl]-3-[1-[[3-[2-[10-[(2R)-2-[(1-fluorocyclopropanecarbonyl)amino]-3-[(2S,4R)-4-hydroxy-2-[[4-(4-methylthiazol-5-yl)phenyl]methylcarbamoyl]pyrrolidin-1-yl]-1,1-dimethyl-3-oxo-propyl]sulfanyldecyl-methyl-amino]ethoxy]-5,7-dimethyl-1-adamantyl]methyl]-5-methyl-pyrazol-4-yl]pyridine-2-carboxylic acid]",> 1670,14.4,112,1.06
"Cc1cc(N(CCCCN(C)C(=O)CCCCCCCCCOc2cccc3c2C(=O)N(C2CCC(=O)NC2=O)C3=O)c2ccc(-c3cnn(CC45CC6(C)CC(C)(C4)CC(OCCN(C)C)(C6)C5)c3C)c(C(=O)O)n2)nnc1Nc1nc2ccccc2s1 (stereo not drawn) [Example 95, 6-[[6-(1,3-benzothiazol-2-ylamino)-5-methyl-pyridazin-3-yl]-[4-[10-[2-(2,6-dioxo-3-piperidyl)-1,3-dioxo-isoindolin-4-yl]oxydecanoyl-methyl-amino]butyl]amino]-3-[1-[[3-[2-(dimethylamino)ethoxy]-5,7-dimethyl-1-adamantyl]methyl]-5-methyl-pyrazol-4-yl]pyridine-2-carboxylic acid]",> 1670,5.77,2660,2.85
"Cc1ncsc1-c1ccc([C@H](C)NC(=O)[C@@H]2C[C@@H](O)CN2C(=O)[C@@H](NC(=O)CCCCCCCCCCCCCCCCN(C)CCOC23CC4(C)CC(C)(CC(Cn5ncc(-c6ccc(N7CCCc8c7nnc(Nc7nc9ccccc9s7)c8C)nc6C(=O)O)c5C)(C4)C2)C3)C(C)(C)C)cc1 [Example 145, 6-[3-(1,3-benzothiazol-2-ylamino)-4-methyl-6,7-dihydro-5H-pyrido[2,3-c]pyridazin-8-yl]-3-[1-[[3-[2-[[17-[[(1S)-1-[(2S,4R)-4-hydroxy-2-[[(1S)-1-[4-(4-methylthiazol-5-yl)phenyl]ethyl]carbamoyl]pyrrolidine-1-carbonyl]-2,2-dimethyl-propyl]amino]-17-oxo-heptadecyl]-methyl-amino]ethoxy]-5,7-dimethyl-1-adamantyl]methyl]-5-methyl-pyrazol-4-yl]pyridine-2-carboxylic acid]",2,2.41,1,2.17
"Cc1ncsc1-c1ccc([C@H](C)NC(=O)[C@@H]2C[C@@H](O)CN2C(=O)[C@@H](NC(=O)COCCCCCCCCCN(C)CCOC23CC4(C)CC(C)(CC(Cn5ncc(-c6ccc(N7CCCc8c7nnc(Nc7nc9ccccc9s7)c8C)nc6C(=O)O)c5C)(C4)C2)C3)C(C)(C)C)cc1 [Example 109, 6-[3-(1,3-benzothiazol-2-ylamino)-4-methyl-6,7-dihydro-5H-pyrido[2,3-c]pyridazin-8-yl]-3-[1-[[3-[2-[9-[2-[[(1S)-1-[(2S,4R)-4-hydroxy-2-[[(1S)-1-[4-(4-methylthiazol-5-yl)phenyl]ethyl]carbamoyl]pyrrolidine-1-carbonyl]-2,2-dimethyl-propyl]amino]-2-oxo-ethoxy]nonyl-methyl-amino]ethoxy]-5,7-dimethyl-1-adamantyl]methyl]-5-methyl-pyrazol-4-yl]pyridine-2-carboxylic acid]",1,7.84,98,0.155
